Laboratory results: patent US8252740B2, “Thermally-targeted delivery of medicaments including doxorubicin” (The University of Mississippi Medical Center, priority 2006, dated 2012)
Like-named read-outs stand apart in the source and are kept apart here.

Tested on: MES-SA uterine sarcoma cells
Format: cell-based, human
Settings: for Inhibition of cell proliferation: 5 μM, counted after 72 h; for IC50: cells counted after 72 h, ± SEM
Experimental: MES-SA cells were treated for 1 h at 37 or 42° C. with 5 μM Tat-ELP-GFLG-DOX (SEQ ID NO: 3); ELP-GFLG-DOX (SEQ ID NO: 3), which lacks the Tat cell penetrating peptide; or Tat-ELP-GFLG (SEQ ID NO: 3), which is not labeled with DOX. After the 1 h treatment, cells were rinsed and fresh media was replaced for 72 h. Cells remaining after 72 h were collected by trypsinization and counted using a Coulter counter. […] Similarly, the control polypeptide which lacks the Tat sequence was not cytotoxic, likely because it cannot efficiently enter the cells.
1.8 Cytotoxicity Assay. Cells were plated and treated for 1 h at 37° C. and 42° C. as described above with Tat-ELP1-GFLG-Dox (SEQ ID NO: 3), Tat-ELP2-GFLG-Dox (SEQ ID NO: 3), or control polypeptides lacking the Tat sequence or unlabeled with Dox. Cells were rinsed and harvested 72 h after treatment by trypsinization, collected by centrifugation, and resuspended in isotonic buffer. Cell number was determined using a Coulter counter and expressed as a percentage of untreated cells.
1.10. Data Fitting and Statistical Analysis. The concentration dependence of the Tt was fit with a logarithmic equation using Microsoft Excel. Dose-response curves were fit using exponential or sigmoid equations as applicable using Microcal Origin in order to determine the 50% inhibitory concentration (IC50). […] The significance of the thermal targeting index was assessed by comparing the normothermia group with the hyperthermia group using a paired Student's t-test in Microsoft Excel. p values of less than 0.05 were considered statistically significant. Polypeptide uptake and caspase activation were analyzed for statistical differences using one-way ANOVA analyses with post-hoc Scheffe's tests for pair-wise comparisons of treatment groups. The statistical significance level was p<0.05.
3.5. Cytotoxicity of ELP-delivered Dox. The growth-inhibitory activity of Tat-ELP-GFLG-Dox (SEQ ID NO: 3) was evaluated in the MES-SA uterine sarcoma cell line. MES-SA cells were treated for 1 h at 37° C. or 42° C. with various concentrations of Tat-ELP-GFLG-Dox (SEQ ID NO: 3); ELP-GFLG-Dox (SEQ ID NO: 3), which lacks the Tat cell penetrating peptide, the Tat-ELP-GFLG (SEQ ID NO: 3) polypeptide without Dox; or free Dox. After the 1 h treatment, the cells were rinsed and fresh media was replaced for 72 h. Cells remaining after 72 h were rinsed, collected by trypsinization, and counted using a Coulter counter. […] The toxicity of the unlabeled Tat-ELP-GFLG (SEQ ID NO: 3) protein was negligible when treated below the Tt.

Substance: Tat-ELP1-GFLG-Dox
- Cytotoxicity in words: cytotoxic at 37° C., but high concentrations were needed
- Enhancement of cytotoxicity (reduction of IC50) by hyperthermia: twenty-fold
- Inhibition of cell proliferation (1 h at 37° C.): little toxicity
- Inhibition of cell proliferation (1 h at 42° C.): complete inhibition of cell proliferation
- IC50 (1 h treatment at 37° C., read-out: IC50 (37° C.)): 21.9 ± 8.2 µM
- IC50 (1 h treatment at 42° C., read-out: IC50 (42° C.)): 1.1 ± 0.1 µM
